# From PMC8903829 (eLife, 2022)
# Values joined by “and” are separate entries in the source; they are usually repeats but may differ in a detail not shown here. Equal entries are not always repeated. “Also recorded” adds a separate entry of the source.
# What was measured:
# Type in all cases: cell-based
# [1] = target: T1, hNaV1.5 (Homo sapiens, UniProt Q14524); assay: Qube 384 automated patch-clamp, inactivated-state inhibition
# T1 construct: expression vector containing the full-length cDNA coding for specific human and mouse sodium channel α-subunit; expressed in transfected cells
# T1 sequence (Q14524 whole entry): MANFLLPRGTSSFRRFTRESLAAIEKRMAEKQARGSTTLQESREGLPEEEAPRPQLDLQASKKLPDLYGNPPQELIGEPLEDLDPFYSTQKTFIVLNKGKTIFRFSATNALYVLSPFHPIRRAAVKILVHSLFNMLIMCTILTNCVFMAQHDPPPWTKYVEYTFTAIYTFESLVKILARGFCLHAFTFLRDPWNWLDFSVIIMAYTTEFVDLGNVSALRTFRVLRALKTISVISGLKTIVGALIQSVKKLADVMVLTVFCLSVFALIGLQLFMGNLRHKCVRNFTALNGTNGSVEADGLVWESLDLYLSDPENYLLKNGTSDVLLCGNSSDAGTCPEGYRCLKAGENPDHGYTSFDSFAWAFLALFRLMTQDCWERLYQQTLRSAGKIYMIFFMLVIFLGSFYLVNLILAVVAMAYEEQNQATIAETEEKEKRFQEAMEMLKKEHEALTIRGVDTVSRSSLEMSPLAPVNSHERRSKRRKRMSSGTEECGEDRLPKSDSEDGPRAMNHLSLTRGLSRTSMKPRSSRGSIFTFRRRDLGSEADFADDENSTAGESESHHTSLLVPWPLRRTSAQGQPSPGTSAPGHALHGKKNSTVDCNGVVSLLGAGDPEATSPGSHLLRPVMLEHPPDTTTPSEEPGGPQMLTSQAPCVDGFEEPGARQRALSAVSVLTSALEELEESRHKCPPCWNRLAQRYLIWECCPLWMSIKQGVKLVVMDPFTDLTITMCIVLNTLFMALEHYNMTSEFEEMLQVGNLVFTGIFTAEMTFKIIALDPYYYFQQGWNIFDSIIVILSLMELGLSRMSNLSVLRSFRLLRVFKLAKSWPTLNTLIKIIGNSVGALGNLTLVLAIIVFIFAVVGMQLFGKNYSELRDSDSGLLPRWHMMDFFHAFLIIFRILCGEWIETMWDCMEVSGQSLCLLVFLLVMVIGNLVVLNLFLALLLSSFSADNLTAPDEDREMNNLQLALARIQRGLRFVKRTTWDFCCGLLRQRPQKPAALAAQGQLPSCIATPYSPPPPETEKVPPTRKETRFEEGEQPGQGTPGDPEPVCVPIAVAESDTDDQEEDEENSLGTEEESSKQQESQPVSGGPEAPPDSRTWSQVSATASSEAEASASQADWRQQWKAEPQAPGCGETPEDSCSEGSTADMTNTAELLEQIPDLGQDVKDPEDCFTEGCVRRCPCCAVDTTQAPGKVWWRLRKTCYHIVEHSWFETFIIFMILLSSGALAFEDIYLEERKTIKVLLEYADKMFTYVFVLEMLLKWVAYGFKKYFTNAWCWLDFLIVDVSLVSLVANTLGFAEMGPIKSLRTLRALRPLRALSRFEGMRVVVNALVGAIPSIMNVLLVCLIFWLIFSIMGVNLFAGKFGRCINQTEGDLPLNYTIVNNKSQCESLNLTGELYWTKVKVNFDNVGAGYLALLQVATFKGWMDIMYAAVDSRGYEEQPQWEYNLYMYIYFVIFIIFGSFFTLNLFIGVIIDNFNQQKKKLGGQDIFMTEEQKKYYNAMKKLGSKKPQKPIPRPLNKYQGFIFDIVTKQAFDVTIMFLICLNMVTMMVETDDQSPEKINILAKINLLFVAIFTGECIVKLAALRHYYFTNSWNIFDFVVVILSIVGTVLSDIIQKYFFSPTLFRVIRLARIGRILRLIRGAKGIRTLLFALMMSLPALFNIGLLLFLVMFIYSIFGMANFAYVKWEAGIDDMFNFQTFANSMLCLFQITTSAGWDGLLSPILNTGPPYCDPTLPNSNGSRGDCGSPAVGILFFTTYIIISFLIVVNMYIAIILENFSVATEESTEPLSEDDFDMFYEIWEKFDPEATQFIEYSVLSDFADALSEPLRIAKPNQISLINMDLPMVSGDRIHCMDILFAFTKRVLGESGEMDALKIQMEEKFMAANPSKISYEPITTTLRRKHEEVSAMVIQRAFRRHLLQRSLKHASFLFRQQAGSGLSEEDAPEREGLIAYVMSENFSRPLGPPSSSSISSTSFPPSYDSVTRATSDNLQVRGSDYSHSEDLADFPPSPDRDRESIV
# [2] = target: T2, hNaV1.6 (Homo sapiens, UniProt Q9UQD0); assay: as above; details: for hNav1.6 current in (352)/(Vehicle), mean: Inactivated (-45mV)
# T2 construct: expression vector containing the full-length cDNA coding for specific human and mouse sodium channel α-subunit; expressed in transfected cells
# T2 sequence (Q9UQD0 whole entry): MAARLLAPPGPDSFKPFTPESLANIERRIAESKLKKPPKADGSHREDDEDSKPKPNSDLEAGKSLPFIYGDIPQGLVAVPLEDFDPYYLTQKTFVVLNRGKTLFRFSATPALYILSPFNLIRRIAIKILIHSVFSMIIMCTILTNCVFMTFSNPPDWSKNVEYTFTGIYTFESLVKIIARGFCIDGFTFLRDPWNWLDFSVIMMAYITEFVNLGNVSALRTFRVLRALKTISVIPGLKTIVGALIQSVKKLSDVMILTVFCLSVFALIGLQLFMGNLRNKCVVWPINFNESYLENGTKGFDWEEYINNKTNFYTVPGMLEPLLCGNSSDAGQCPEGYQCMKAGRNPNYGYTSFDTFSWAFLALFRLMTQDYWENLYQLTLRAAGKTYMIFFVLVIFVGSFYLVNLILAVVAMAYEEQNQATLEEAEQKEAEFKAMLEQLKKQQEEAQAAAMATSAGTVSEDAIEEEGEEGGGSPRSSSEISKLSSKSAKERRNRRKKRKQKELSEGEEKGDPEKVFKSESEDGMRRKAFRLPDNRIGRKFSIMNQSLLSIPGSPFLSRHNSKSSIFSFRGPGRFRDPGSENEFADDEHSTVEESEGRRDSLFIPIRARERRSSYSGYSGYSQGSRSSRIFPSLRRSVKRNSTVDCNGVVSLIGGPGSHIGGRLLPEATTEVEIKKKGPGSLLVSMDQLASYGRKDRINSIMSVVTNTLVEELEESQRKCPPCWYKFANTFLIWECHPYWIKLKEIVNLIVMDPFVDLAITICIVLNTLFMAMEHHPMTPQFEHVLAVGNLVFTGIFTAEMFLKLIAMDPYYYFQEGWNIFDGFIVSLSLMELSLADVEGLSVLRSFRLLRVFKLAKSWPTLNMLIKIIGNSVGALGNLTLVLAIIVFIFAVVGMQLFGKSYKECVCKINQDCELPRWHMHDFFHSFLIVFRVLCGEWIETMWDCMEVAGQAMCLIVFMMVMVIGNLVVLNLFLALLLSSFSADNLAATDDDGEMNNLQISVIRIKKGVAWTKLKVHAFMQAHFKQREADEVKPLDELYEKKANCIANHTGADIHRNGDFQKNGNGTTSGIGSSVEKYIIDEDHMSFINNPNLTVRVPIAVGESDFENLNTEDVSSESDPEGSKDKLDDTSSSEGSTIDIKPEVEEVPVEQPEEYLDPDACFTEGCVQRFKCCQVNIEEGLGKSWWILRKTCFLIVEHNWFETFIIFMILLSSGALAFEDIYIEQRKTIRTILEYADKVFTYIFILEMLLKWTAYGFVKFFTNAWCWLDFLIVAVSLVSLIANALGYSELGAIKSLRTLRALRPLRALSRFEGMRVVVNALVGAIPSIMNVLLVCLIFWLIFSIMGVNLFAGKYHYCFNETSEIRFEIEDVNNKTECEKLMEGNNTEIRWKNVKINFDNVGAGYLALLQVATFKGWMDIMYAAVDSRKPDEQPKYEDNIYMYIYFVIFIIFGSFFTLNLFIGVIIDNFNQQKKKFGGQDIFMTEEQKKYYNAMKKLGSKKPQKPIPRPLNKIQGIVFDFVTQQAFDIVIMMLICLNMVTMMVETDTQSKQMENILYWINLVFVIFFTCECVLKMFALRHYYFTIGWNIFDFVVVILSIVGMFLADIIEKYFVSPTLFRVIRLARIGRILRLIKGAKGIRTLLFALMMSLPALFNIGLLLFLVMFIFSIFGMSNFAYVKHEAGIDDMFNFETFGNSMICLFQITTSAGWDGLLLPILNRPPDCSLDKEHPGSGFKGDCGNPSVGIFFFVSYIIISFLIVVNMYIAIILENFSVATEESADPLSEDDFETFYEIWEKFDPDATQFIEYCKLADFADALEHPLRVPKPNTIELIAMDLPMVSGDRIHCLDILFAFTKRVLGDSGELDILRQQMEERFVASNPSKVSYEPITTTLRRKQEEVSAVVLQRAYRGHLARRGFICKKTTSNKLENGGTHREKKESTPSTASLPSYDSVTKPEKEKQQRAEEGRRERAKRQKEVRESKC
# [3] = test system: glutamatergic pyramidal neurons from mouse layer five neocortex; assay: Current-clamp recording in brain slices, action-potential firing; details: for WT Cortical pyramidal neurons APs/1s: 0.25 μM, individual neurons; for Cumulative number of action potentials fired by each cell on increasing current injections: 250 nM, WT cortical pyramidal neurons
# Description: Parasagittal cortical brain slices were prepared from> P21 mice using standard procedures (adapted from Tai et al., PNAS 2014). Briefly, the mouse was deeply anaesthetized with isoflurane and decapitated. The brain was removed and placed into chilled artificial cerebrospinal fluid (aCSF) solution containing (in mM): 125 NaCl, 25 NaHCO3, 2.5 KCl, 1.25 NaH2PO4, 2 CaCl2, 2 MgCl2, 10 d-glucose, pH 7.3, osmolarity adjusted to ~306 mOsm using sucrose. All solutions were saturated with 95% O2 and 5% CO2 constantly perfused with 95% O2/5% CO2. Slices with a thickness of 400 µm were prepared using a vibratome (Ted Pella, Inc). Following sectioning, the slices were placed in a holding chamber and incubated in a water bath at 34 °C for 15 min. The brain slices were removed from the water bath and held at room temperature for 60 min prior to recording.
# All experiments involving rodent subjects were performed in accordance with the guidelines of the Canadian Council on Animal Care (CCAC). Following a 60-min incubation at room temperature, a brain slice was selected and placed on the stage of an upright microscope (SliceScope Pro 2000, Scientifica). The slice was constantly perfused with room temperature aCSF, containing 0.1% DMSO as a vehicle control, and oxygenated with 95% O2/5% CO2.The slice was visualized using brightfield microscopy, and a healthy neuron was selected from neocortical layer 5. […] Stimulation was applied in current-clamp mode, and consisted of a series of 1000ms square pulses, beginning at –20 pA and increasing by +20 pA increments (3000ms between pulses).
# The slice was incubated in circulating compound for 10 min before repeating the series of square pulse stimulations. Working stock solutions were prepared in DMSO at a concentration of 20 mM.
# All data analysis was done offline using ClampFit 10.7 (Molecular Devices). Data are presented as a mean ± SEM. For each sweep, the number of evoked APs was counted, and plotted as a function of current injection (beginning with –20 pA). […] Statistical significance was assessed using paired, two-way, student’s t-test applied at each current injection level with significance considered p < 0.05.
# [4] = target: T3, N1768D NaV1.6 persistent currents (Homo sapiens, UniProt Q9UQD0, N1768D); assay: Persistent current inhibition
# T3 construct: expression vector containing the full-length cDNA coding for specific human and mouse sodium channel α-subunit; expressed in transfected cells; host or cells: Expi293F (transient, tetracycline-induced, pcDNA4/TO)
# T3 sequence (Q9UQD0 whole entry N1768D): as the sequence (Q9UQD0 whole entry) above, with N1768D counted along it
# T3 sequence (Q92913 1-192 isoform Q92913-2 partner): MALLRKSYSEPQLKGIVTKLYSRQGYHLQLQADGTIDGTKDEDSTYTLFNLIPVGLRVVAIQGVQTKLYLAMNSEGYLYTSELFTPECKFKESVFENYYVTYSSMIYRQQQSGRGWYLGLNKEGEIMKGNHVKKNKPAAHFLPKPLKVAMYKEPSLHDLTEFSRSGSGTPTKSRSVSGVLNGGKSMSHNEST
# Description: Elevated persistent and or resurgent currents are believed to underlie or contribute to the pathology of many sodium channel related pathologies ([Mason et al., 2019]; [Pan and Cummins, 2020]; [Potet et al., 2020]; [Tidball et al., 2020]; [Zaman et al., 2019]). In most conditions, normal NaV1.6 channels inactivate rapidly and nearly completely after opening.
# (§1) Inorm(CPD)=(ICPD−Icontrol)/(ITTX−Icontrol).
# [5] = target: T4, hNaV1.6 R850Q (Homo sapiens, UniProt Q9UQD0, R850Q); assay: Automated patch-clamp, patient-identified variant in Expi293F cells
# T4 construct: expression vector containing the full-length cDNA coding for specific human and mouse sodium channel α-subunit; expressed in transfected cells; host or cells: Expi293F (transient, tetracycline-induced, pcDNA4/TO)
# T4 sequence (Q9UQD0 whole entry R850Q): as the sequence (Q9UQD0 whole entry) above, with R850Q counted along it
# Description: (§2) For studies of mutant channels, cDNA plasmids in pcDNA4/TO Mammalian Expression Vector were transiently transfected into Expi293F cells stably expressing human FHF2b and human SCN1B subunit (polyclonal) background using ExpiFectamine 293 Transfection Kits (Gibco,Thermo Fisher Scientific CAT #: A14524). Induction was achieved using Tetracycline (Sigma Aldrich). Transfected cells were used in automated patch-clamp experiments 24 hours postinduction.
# as §1
# [6] = target: T5, hNaV1.6 N1466K (Homo sapiens, UniProt Q9UQD0, N1466K); assay: as above; set-up: h1.6 -N1466K 145756, Mean: scale not given here
# T5 construct: expression vector containing the full-length cDNA coding for specific human and mouse sodium channel α-subunit; expressed in transfected cells; host or cells: Expi293F (transient, tetracycline-induced, pcDNA4/TO)
# T5 sequence (Q9UQD0 whole entry N1466K): as the sequence (Q9UQD0 whole entry) above, with N1466K counted along it
# Description: as §2, §1
structure (smiles),measurement,setting,value
Cc1cc(S(=O)(=O)Nc2cscn2)c(F)cc1N(C)[C@H]1CCN(Cc2ccccc2)C1 [NBI-921352],inhibition at 30 µM,"[1]; 30 µM, NaV1.5, read-out: inhibition at the highest concentration tested",< 50%
same,"hNaV1.5 current (352)/(Vehicle), mean",[1]; -4.52288 Log M,0.24
same,"hNaV1.5 current (352)/(Vehicle), mean",[1]; -5 Log M,0.1
same,"hNaV1.5 current (352)/(Vehicle), mean",[1]; -5.47716 Log M,0.02
same,"hNaV1.5 current (352)/(Vehicle), mean",[1]; -5.95429 Log M,0.05
same,"hNaV1.5 current (352)/(Vehicle), mean",[1]; -6.91009 Log M,0.04
same,"hNaV1.5 current (352)/(Vehicle), mean",[1]; -7.38722 Log M,-0.02
same,"hNaV1.5 current (352)/(Vehicle), mean",[1]; -7.85387 Log M,0.03
same,IC50,[2],51 nM
same,"hNav1.6 current in (352)/(Vehicle), mean",[2]; -5 Log M,0.96
same,"hNav1.6 current in (352)/(Vehicle), mean",[2]; -5.47716 Log M,0.91
same,"hNav1.6 current in (352)/(Vehicle), mean",[2]; -5.95429 Log M,0.87
same,"hNav1.6 current in (352)/(Vehicle), mean",[2]; -6.47756 Log M,0.83
same,"hNav1.6 current in (352)/(Vehicle), mean",[2]; -6.91009 Log M,0.68
same,"hNav1.6 current in (352)/(Vehicle), mean",[2]; -6.95468 Log M,0.66
same,"hNav1.6 current in (352)/(Vehicle), mean",[2]; -7.38722 Log M,0.57
same,"hNav1.6 current in (352)/(Vehicle), mean",[2]; -7.4318 Log M,0.52
same,"hNav1.6 current in (352)/(Vehicle), mean",[2]; -7.85387 Log M,0.25
same,"hNav1.6 current in (352)/(Vehicle), mean",[2]; -8.30103 Log M,0.16
same,"hNav1.6 current in (352)/(Vehicle), mean",[2]; -8.39794 Log M,0.12
same,"hNav1.6 current in (352)/(Vehicle), mean",[2]; -9.34679 Log M,0.01
same,"effect on action-potential firing, pyramidal neurons",[3]; 0.25 µM NBI-921352,decreased the maximum firing rate; also recorded: reduced action-potential spiking
same,WT Cortical pyramidal neurons APs/1s,[3]; 200 pA current injected,0 APs/1s and 12 APs/1s and 13 APs/1s
same,WT Cortical pyramidal neurons APs/1s,[3]; current injected 0 pA,0 APs/1s
same,WT Cortical pyramidal neurons APs/1s,[3]; current injected 20 pA,0 APs/1s
same,WT Cortical pyramidal neurons APs/1s,[3]; current injected 40 pA,0 APs/1s
same,WT Cortical pyramidal neurons APs/1s,"[3]; current injected 60 pA, row",0 APs/1s and 1 APs/1s and 2 APs/1s
same,WT Cortical pyramidal neurons APs/1s,"[3]; current injected 80 pA, row",0 APs/1s and 4 APs/1s and 6 APs/1s
same,WT Cortical pyramidal neurons APs/1s,"[3]; current injected 100 pA, row",0 APs/1s and 6 APs/1s and 8 APs/1s
same,WT Cortical pyramidal neurons APs/1s,"[3]; current injected 120 pA, row",0 APs/1s and 7 APs/1s and 9 APs/1s
same,WT Cortical pyramidal neurons APs/1s,"[3]; current injected 140 pA, row",0 APs/1s and 8 APs/1s and 10 APs/1s
same,WT Cortical pyramidal neurons APs/1s,"[3]; current injected 160 pA, row",0 APs/1s and 9 APs/1s and 12 APs/1s
same,WT Cortical pyramidal neurons APs/1s,"[3]; current injected 180 pA, row",0 APs/1s and 11 APs/1s (2×)
same,WT Cortical pyramidal neurons APs/1s,"[3]; current injected 200 pA, row",0 APs/1s and 12 APs/1s and 13 APs/1s
same,WT Cortical pyramidal neurons APs/1s,"[3]; current injected 220 pA, row",1 APs/1s and 13 APs/1s and 14 APs/1s
same,WT Cortical pyramidal neurons APs/1s,"[3]; current injected 240 pA, row",3 APs/1s and 14 APs/1s and 15 APs/1s
same,WT Cortical pyramidal neurons APs/1s,"[3]; current injected 260 pA, row",4 APs/1s and 15 APs/1s and 13 APs/1s
same,WT Cortical pyramidal neurons APs/1s,"[3]; current injected 280 pA, row",4 APs/1s and 15 APs/1s and 13 APs/1s
same,WT Cortical pyramidal neurons APs/1s,"[3]; current injected 300 pA, row",4 APs/1s and 17 APs/1s and 13 APs/1s
same,WT Cortical pyramidal neurons APs/1s,"[3]; current injected 320 pA, row",5 APs/1s and 18 APs/1s and 13 APs/1s
same,WT Cortical pyramidal neurons APs/1s,"[3]; current injected 340 pA, row",5 APs/1s and 19 APs/1s and 12 APs/1s
same,WT Cortical pyramidal neurons APs/1s,"[3]; current injected 360 pA, row",6 APs/1s and 20 APs/1s and 12 APs/1s
same,WT Cortical pyramidal neurons APs/1s,"[3]; current injected 380 pA, row",7 APs/1s (2×) and 21 APs/1s
same,WT Cortical pyramidal neurons APs/1s,"[3]; current injected 400 pA, row",8 APs/1s and 22 APs/1s and 13 APs/1s
same,WT Cortical pyramidal neurons APs/1s,"[3]; current injected 420 pA, row",7 APs/1s and 22 APs/1s and 5 APs/1s
same,WT Cortical pyramidal neurons APs/1s,"[3]; current injected 440 pA, row",7 APs/1s and 23 APs/1s and 4 APs/1s
same,WT Cortical pyramidal neurons APs/1s,[3]; current injected -20 pA,0 APs/1s
same,Cumulative number of action potentials fired by each cell on increasing current injections,[3]; up to current injected 0 pA,0
same,Cumulative number of action potentials fired by each cell on increasing current injections,[3]; up to current injected 20 pA,0
same,Cumulative number of action potentials fired by each cell on increasing current injections,[3]; up to current injected 40 pA,0
same,Cumulative number of action potentials fired by each cell on increasing current injections,[3]; up to current injected -20 pA,0
same,"N1768D current in (352)/(Vehicle), Persistent, mean",[4]; -5 Log M,0.93
same,"N1768D current in (352)/(Vehicle), Persistent, mean",[4]; -5.47712 Log M,0.92
same,"N1768D current in (352)/(Vehicle), Persistent, mean",[4]; -5.95424 Log M,0.91
same,"N1768D current in (352)/(Vehicle), Persistent, mean",[4]; -6.43136 Log M,0.87
same,"N1768D current in (352)/(Vehicle), Persistent, mean",[4]; -6.90848 Log M,0.63
same,"N1768D current in (352)/(Vehicle), Persistent, mean",[4]; -7.38561 Log M,0.44
same,"N1768D current in (352)/(Vehicle), Persistent, mean",[4]; -7.86274 Log M,0.21
same,"N1768D current in (352)/(Vehicle), Persistent, mean",[4]; -8.33989 Log M,0
same,IC50,[4]; non-inactivating current 10ms after initiation of test pulse,59 nM
same,IC50,[5],21 nM
same,"h1.6-R850Q 145756, Mean",[5]; -5 LogM,0.91
same,"h1.6-R850Q 145756, Mean",[5]; -5.47716 LogM,0.88
same,"h1.6-R850Q 145756, Mean",[5]; -5.95429 LogM,0.86
same,"h1.6-R850Q 145756, Mean",[5]; -6.4318 LogM,0.83
same,"h1.6-R850Q 145756, Mean",[5]; -6.91009 LogM,0.79
same,"h1.6-R850Q 145756, Mean",[5]; -7.38722 LogM,0.58
same,"h1.6-R850Q 145756, Mean",[5]; -7.85387 LogM,0.43
same,"h1.6-R850Q 145756, Mean",[5]; -8.33 LogM,0.13
same,IC50,[6],39 nM
same,"h1.6 -N1466K 145756, Mean",[6]; -5 LogM,0.92
same,"h1.6 -N1466K 145756, Mean",[6]; -5.47716 LogM,0.94
same,"h1.6 -N1466K 145756, Mean",[6]; -5.95429 LogM,0.81
same,"h1.6 -N1466K 145756, Mean",[6]; -6.4318 LogM,0.73
same,"h1.6 -N1466K 145756, Mean",[6]; -6.91009 LogM,0.69
same,"h1.6 -N1466K 145756, Mean",[6]; -7.38722 LogM,0.47
same,"h1.6 -N1466K 145756, Mean",[6]; -7.85387 LogM,0.32
same,"h1.6 -N1466K 145756, Mean",[6]; -8.33 LogM,0.15
